Assay results reported in PMC8280112, “Substrate reduction therapy for Krabbe disease and metachromatic leukodystrophy using a novel ceramide galactosyltransferase inhibitor” (Scientific Reports, 2021).
pIC50: −log10 of the molar value. Several values for one entry are separate records, joined by “and”; a condition that tells them apart may be missing. Identical values can stand only once.

How the values were obtained:
Human CGT = target: T1, Human CGT (Homo sapiens, UniProt Q16880); assay: CGT enzyme assay (cell-lysate assay); assay type: biochemical; conditions: lysate of CHO cells expressing human UGT8
T1 construct: made in house; host or cells: CHO cells expressing UGT8; crude M-PER lysate
T1 sequence (Q16880 21-541): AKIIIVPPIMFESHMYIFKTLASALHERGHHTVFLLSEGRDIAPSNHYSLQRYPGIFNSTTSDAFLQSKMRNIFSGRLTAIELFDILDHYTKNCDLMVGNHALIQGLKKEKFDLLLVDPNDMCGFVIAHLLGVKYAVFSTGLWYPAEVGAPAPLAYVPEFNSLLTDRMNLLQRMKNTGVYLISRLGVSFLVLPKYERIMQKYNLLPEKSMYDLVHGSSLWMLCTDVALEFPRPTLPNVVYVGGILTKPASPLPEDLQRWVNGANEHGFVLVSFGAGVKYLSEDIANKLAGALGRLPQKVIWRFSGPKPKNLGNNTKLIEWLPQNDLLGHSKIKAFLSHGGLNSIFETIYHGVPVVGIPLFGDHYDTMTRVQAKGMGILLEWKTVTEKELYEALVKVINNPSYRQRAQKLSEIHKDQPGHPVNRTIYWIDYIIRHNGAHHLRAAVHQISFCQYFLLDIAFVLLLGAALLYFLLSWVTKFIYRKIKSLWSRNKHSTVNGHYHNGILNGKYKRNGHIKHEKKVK
Experimental: Human CGT was obtained from a cell lysate from CHO cells expressing UGT8 (made by BioMarin) prepared in M-PER with proteinase inhibitors (Sigma). Compounds, serially diluted in DMSO and Tween 80, were added to 4 µg/well of CHO/CGT cell lysate to make 20 µL final reaction volume containing 0.5% DMSO and 0.01% Tween 80 in the reaction buffer consisting of 10 µM NDB-(2R-OH)-C6 ceramide (made by BioMarin), 17.5 µM UDP-Galactose (Sigma), 35 µM of dioleoylphosphatidylcholine (DOPC), 5 mM MgCl2, 5 mM MnCl2, 1% BSA, 15 mM KCl, 1 mM EGTA, 8 mM CHAPS, 10 mM HEPES–NaOH pH 7.2. The reaction was incubated at 37 °C for 1 h and stopped by adding 80 µL of methanol:acetonitrile (1:3) with 5 µM N-dodecanoyl-NBD-galactosylceramide (Matreya) internal standard (IS) for 30 min. 200 µL H2O:ACN (1:1) was added for 5 min and then centrifuged at 4000 rpm for 38 min at RT before quantifying NDB-(2R-OH)-C6-galactosylceramide (BioMarin) by LC–MS on a Rapid Fire 360 mass spectrometer (Agilent) coupled with a API4000 + MS in electrospray ionization (ESI) negative mode (Applied Biosystems). These assay conditions were used to screen the Bio-active lipid library (Cayman Cat# 10506).

[1] = target: T2, CGT in CHO cells stably expressing human UGT8 (Homo sapiens, UniProt Q16880); assay: CGT cellular assay (intact-cell assay); assay type: cell-based
T2 construct: expressed in transfected cells; host or cells: CHO cells stably expressing human UGT8
T2 sequence (Q16880 21-541): T1 sequence (Q16880 21-541)
Experimental: 3 × 10^4 CHO cells stably expressing human UGT8 were seeded in a 96-well TC plate in F12K + 10% FBS (Invitrogen, qualified, Australia, 10099141) and incubated at 37 °C, 5% CO2 overnight. Media was removed and compounds, diluted in F12K + 5% FBS (0.1% DMSO final) containing 1 µM eliglustat to prevent NBD-glucosylceramide formation, were added to the cells and incubated 2 h at 37 °C. NDB-(2R-OH)-C6-ceramide (BioMarin) in F12K + 5% FBS + 11% BSA was added to a final substrate concentration of 10 µM in 1% BSA and incubated 1 h at 37 °C before extracting in methanol/0.5% acetic acid containing N-dodecanoyl-NBD-galactosylceramide IS (1 µM). After 2 h shaking, the solution was centrifuged at 4000 rpm for 30 min, and 80 µL of supernatant was transferred to 40 µL H2O, mixed and centrifuged at 4000 rpm for 10 min. NDB-(2R-OH)-C6-galactosylceramide product was quantified by a Shimadzu ultra-fast liquid chromatography system (Shimadzu) coupled to an API 4000 mass spectrometer in ESI negative mode (Applied Biosystems) using a Kinetex C18 column (50 × 2.1 mm, 2.6 µm, 100 Å) (Phenomenex) with 0.1% formic acid and acetonitrile supplemented with 0.1% formic acid.

[2] = target: T3, Glucosylceramide synthase (GCS) (Canis lupus familiaris, UniProt A0A8I3MXG6); assay: Glucosylceramide synthase assay; assay type: biochemical; conditions: MDCK cell lysate
T3 construct: endogenous in cells; host or cells: MDCK cell lysate
T3 sequence (A0A8I3MXG6 1-394): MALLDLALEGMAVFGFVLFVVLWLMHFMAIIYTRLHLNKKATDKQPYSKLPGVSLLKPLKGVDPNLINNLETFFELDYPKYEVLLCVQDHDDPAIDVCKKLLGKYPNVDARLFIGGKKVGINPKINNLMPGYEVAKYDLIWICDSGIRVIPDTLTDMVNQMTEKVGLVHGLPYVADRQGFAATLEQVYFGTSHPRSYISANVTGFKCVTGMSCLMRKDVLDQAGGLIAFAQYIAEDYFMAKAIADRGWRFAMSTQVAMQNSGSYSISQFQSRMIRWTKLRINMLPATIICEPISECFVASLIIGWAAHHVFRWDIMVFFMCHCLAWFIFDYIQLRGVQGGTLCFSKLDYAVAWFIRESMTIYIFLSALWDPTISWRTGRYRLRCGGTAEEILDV
Experimental: Modified from Larsen et al.[46]. Briefly, 60 μg of MDCK cell lysate was incubated with […] in 100 mM Tris buffer (pH 7.5), 10 mM MgCl2, 1 mM dithiothreitol, 1 mM EGTA, 2 mM NAD, 100 μM UDP-glucose, 10 μM C6-NBD-Ceramide (Matreya), 35 μM DOPC, and 5 μM sulfatide (Sigma) at 37 °C for 1 h. The reaction was stopped with equal volume of acetonitrile and 50 μL was added to 100 μL of acetonitrile containing 100 ng/mL tolbutamide IS and centrifuged. Next, 70 μL of supernatant was mixed with 140 μL H2O before LC-MS analysis. NBD-Glucosylceramide quantification was performed on a Shimadzu ultra-fast liquid chromatography system (Shimadzu) coupled with an API 4000 triple quadrupole mass spectrometer in ESI positive mode (Applied Biosystems) and a Xbridge BEH130 CI 8, 100 mm × 4.6 mm i.d, 3.5 μm column (Waters). The mobile phase consisted of water and acetonitrile supplemented with 0.1% formic acid (v/v).

**Q.** What does the source list for C[C@H]1N(c2ccc(Br)cc2)C(=O)N(c2ccc(Br)cc2)C1(O)c1cccc(OC(F)(F)F)c1 (stereo partly drawn) [S202]?
**A.** pIC50 (Human CGT): 7.82; pIC50 [1]: 8.70 and 8.44 and 8.52; pIC50 [2]: < 4.30
